From patent publication US12240838B2, “Inhibiting agents for Bruton's tyrosine kinase” (BIOGEN MA INC., priority 2019, dated 2025) come the findings set out here.

The target in test [1] is T1, BTK (Homo sapiens (Human), UniProt Q06187). The test can be described thus: In Vitro PD Assay in Human Whole Blood (pBTK assay). Format: cell-based. As to conditions: 37° C. for 30 min, 50% inhibition of ECL signal. The procedure: Human heparinized venous blood was purchased from Bioreclamation, Inc. or SeraCare Life Sciences and shipped overnight. Whole blood was aliquoted into 96-well plate and “spiked” with serial dilutions of test compound in DMSO or with DMSO without drug. The final concentration of DMSO in all wells was 0.1%. The plate was incubated at 37° C. for 30 min. Lysis buffer containing protease and phosphatase inhibitors was added to the drug-containing samples and one of the DMSO-only samples (+PPi, high control), while lysis buffer containing protease inhibitors was added to the other DMSO-only samples (−PPi, low control). All of the lysed whole blood samples were subjected to the total BTK capture and phosphotyrosine detection method described in US20160311802, incorporated herein by reference.

The target of test [2] is T1, BTK. Briefly: In Vitro BTK Kinase Assay: BTK-POLYGAT-LS ASSAY. In kind it is biochemical. As to conditions: ATP 10 μM, polyGAT 100 nM, BTK 0.25 nM, 30 minutes. The method, then: The purpose of the BTK in vitro assay is to determine compound potency against BTK through the measurement of IC50. […] The BTK kinase reaction was done in a black 96 well plate (costar 3694). For a typical assay, a 24 μL aliquot of a ATP/peptide master mix (final concentration; ATP 10 μM, polyGAT 100 nM) in kinase buffer (10 mM Tris-HCl pH 7.5, 10 mM MgCl2, 200 μM […], 5 mM DTT, 0.01% Triton X-100, and 0.2 mg/ml casein) is added to each well. Next, […] of a 4-fold, 40× compound titration in 100% DMSO solvent is added, followed by adding 15 μL of BTK enzyme mix in 1× kinase buffer (with a final concentration of 0.25 nM). The assay is incubated for 30 minutes before being stopped with […] of a 50 mM EDTA solution. Aliquots (5 μL) of the kinase reaction are transferred to a low volume white 384 well plate (Coming 3674), and […] of a 2× detection buffer (Invitrogen PV3574, with 4 nM Tb-PY20 antibody, Invitrogen PV3552) is added. The plate is covered and incubated for 45 minutes at room temperature. Time resolved fluorescence (TRF) on Molecular Devices M5 (332 nm excitation; 488 nm emission; 518 nm fluorescein emission) is measured.

T1 sequence (Q06187 whole entry): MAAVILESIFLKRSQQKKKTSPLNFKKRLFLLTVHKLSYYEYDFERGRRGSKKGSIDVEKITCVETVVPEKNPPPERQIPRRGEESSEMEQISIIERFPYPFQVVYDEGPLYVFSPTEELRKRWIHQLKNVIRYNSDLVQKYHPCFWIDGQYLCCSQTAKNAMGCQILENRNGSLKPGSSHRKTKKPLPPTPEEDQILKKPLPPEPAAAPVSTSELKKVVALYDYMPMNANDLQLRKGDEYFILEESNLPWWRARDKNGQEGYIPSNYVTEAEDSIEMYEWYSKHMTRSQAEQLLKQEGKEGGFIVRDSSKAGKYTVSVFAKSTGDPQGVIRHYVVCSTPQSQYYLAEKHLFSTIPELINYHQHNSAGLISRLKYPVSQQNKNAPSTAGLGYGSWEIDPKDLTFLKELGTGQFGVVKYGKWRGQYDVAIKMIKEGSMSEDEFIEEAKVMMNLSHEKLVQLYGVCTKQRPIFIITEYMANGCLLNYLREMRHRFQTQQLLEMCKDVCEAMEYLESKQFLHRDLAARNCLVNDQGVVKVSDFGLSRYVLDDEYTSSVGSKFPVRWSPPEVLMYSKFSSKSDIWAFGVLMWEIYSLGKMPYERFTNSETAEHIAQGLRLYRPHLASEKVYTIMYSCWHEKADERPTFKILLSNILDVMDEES

What is called IC50 is the concentration that gives 50% inhibition. Read a high IC50 as weaker potency in that assay. In the case of `CC(C)(C)c1nc(C(=O)N[C@@H]2CCN(CC(F)(F)F)Cc3cc(-c4ccnc(NC(=O)C5CC5)c4)ccc32)no1` [Compound 10, (R)-5-(tert-butyl)-N-(8-(2-(cyclopropanecarboxamido)pyridin-4-yl)-2-(2,2,2-trifluoroethyl)-2,3,4,5-tetrahydro-1H-benzo[c]azepin-5-yl)-1,2,4-oxadiazole-3-carboxamide], the results for the IC50 in test [1] and in test [2] were at most 100 nM and at most 1 nM, respectively.
In the same order, the values of `Cc1c(CNC(=O)c2noc(C(C)(C)C)n2)ccc(-c2ccnc(NC(=O)C3CC3)c2)c1F` [Compound 11, 5-(tert-butyl)-N-(4-(2-(cyclopropanecarboxamido)pyridin-4-yl)-3-fluoro-2-methylbenzyl)-1,2,4-oxadiazole-3-carboxamide] are at most 100 nM and at most 1 nM.
`Cc1cc(-c2ccnc(NC(=O)C3CC3)c2)c(F)cc1CNC(=O)c1nc(C(C)(C)C)no1` [Compound 12, 3-(tert-butyl)-N-(4-(2-(cyclopropanecarboxamido)pyridin-4-yl)-5-fluoro-2-methylbenzyl)-1,2,4-oxadiazole-5-carboxamide]: the concentration for half-maximal inhibition (IC50) is 100 to 500 nM in test [1] and at most 1 nM in test [2].
The corresponding values for `Cc1cc(-c2ccnc(NC(=O)C3CC3)c2)c(F)cc1CNC(=O)c1noc(C(C)(C)C)n1` [Compound 13, 5-(tert-butyl)-N-(4-(2-(cyclopropanecarboxamido)pyridin-4-yl)-5-fluoro-2-methylbenzyl)-1,2,4-oxadiazole-3-carboxamide] are at most 100 nM and at most 1 nM.
On to `CC(C)(C)c1nc(C(=O)NCc2ccc(-c3ccnc(NC(=O)C4CC4)c3)c(F)c2Cl)no1` [Compound 14, 5-(tert-butyl)-N-(2-chloro-4-(2-(cyclopropanecarboxamido)pyridin-4-yl)-3-fluorobenzyl)-1,2,4-oxadiazole-3-carboxamide], for which the results for the 50% inhibitory concentration (IC50) in test [1] and in test [2] were at most 100 nM and at most 1 nM, respectively.
As to `CC(C)(C)c1noc(C(=O)NCc2ccc(-c3ccnc(NC(=O)C4CC4)c3)c(F)c2Cl)n1` [Compound 15, 3-(tert-butyl)-N-(2-chloro-4-(2-(cyclopropanecarboxamido)pyridin-4-yl)-3-fluorobenzyl)-1,2,4-oxadiazole-5-carboxamide], the IC50 was at most 100 nM in test [1] and at most 1 nM in test [2].
The corresponding values for `CC(C)(C)c1nc(C(=O)NCc2ccc(-c3ccnc(NC(=O)C4CC4)c3)cc2C(F)(F)F)no1` [Compound 16, 5-(tert-butyl)-N-(4-(2-(cyclopropanecarboxamido)pyridin-4-yl)-2-(trifluoromethyl)benzyl)-1,2,4-oxadiazole-3-carboxamide] are 100 to 500 nM and at most 1 nM.
In the same order, the values of `CC(C)(C)c1noc(C(=O)NCc2ccc(-c3ccnc(NC(=O)C4CC4)c3)cc2C(F)(F)F)n1` [Compound 17, 3-(tert-butyl)-N-(4-(2-(cyclopropanecarboxamido)pyridin-4-yl)-2-(trifluoromethyl)benzyl)-1,2,4-oxadiazole-5-carboxamide] are at most 100 nM and at most 1 nM.
Consider `CC(C)(C)c1noc(C(=O)N[C@@H]2CCCCc3cc(-c4ccnc(NC(=O)C5CC5)c4)ccc32)n1` [Compound 18, (R)-3-(tert-butyl)-N-(2-(2-(cyclopropanecarboxamido)pyridin-4-yl)-6,7,8,9-tetrahydro-5H-benzo[7]annulen-5-yl)-1,2,4-oxadiazole-5-carboxamide], for which the IC50 in test [1] is at most 100 nM; in test [2], at most 1 nM.
The corresponding values for `Cc1cc(-c2ccnc(NC(=O)C3CC3)c2)ccc1[C@@H](C)NC(=O)c1noc(C(C)(C)C)n1` [Compound 19, (R)-5-(tert-butyl)-N-(1-(4-(2-(cyclopropanecarboxamido)pyridin-4-yl)-2-methylphenyl)ethyl)-1,2,4-oxadiazole-3-carboxamide] are at most 100 nM and at most 1 nM.
`Cc1cc(-c2cc(NC(=O)C3CC3)ncc2F)ccc1[C@@H](C)NC(=O)c1noc(C(C)(C)C)n1` [Compound 20, (R)-5-(tert-butyl)-N-(1-(4-(2-(cyclopropanecarboxamido)-5-fluoropyridin-4-yl)-2-methylphenyl)ethyl)-1,2,4-oxadiazole-3-carboxamide]: the IC50 in test [1] is at most 100 nM; in test [2] it was at most 1 nM.
As to `C[C@@H](NC(=O)c1noc(C(C)(C)C)n1)c1ccc(-c2ccnc(NC(=O)C3CC3)c2)cc1Cl` [Compound 21, (R)-5-(tert-butyl)-N-(1-(2-chloro-4-(2-(cyclopropanecarboxamido)pyridin-4-yl)phenyl)ethyl)-1,2,4-oxadiazole-3-carboxamide], the IC50 in test [1] was at most 100 nM; in test [2] it was at most 1 nM.
Consider `C[C@@H](NC(=O)c1noc(C(C)(C)C)n1)c1ccc(-c2cc(NC(=O)C3CC3)ncc2F)cc1Cl` [Compound 22, (R)-5-(tert-butyl)-N-(1-(2-chloro-4-(2-(cyclopropanecarboxamido)-5-fluoropyridin-4-yl)phenyl)ethyl)-1,2,4-oxadiazole-3-carboxamide], for which the values for the half-inhibitory concentration (IC50) in test [1] and in test [2] were 100 to 500 nM and at most 1 nM, respectively.
As for `Cc1cc(-c2cc(NC(=O)C3CC3)ncc2C(F)(F)F)ccc1CNC(=O)c1noc(C(C)(C)C)n1` [Compound 26, 5-(tert-butyl)-N-(4-(2-(cyclopropanecarboxamido)-5-(trifluoromethyl)pyridin-4-yl)-2-methylbenzyl)-1,2,4-oxadiazole-3-carboxamide], the figures for the half-inhibitory concentration (IC50) in test [1] and in test [2] were over 10000 nM and 1 to 10 nM, respectively.
Consider `CC(C)(C)n1cc(F)c(C(=O)NCc2ccc(-c3ccnc(NC(=O)C4CC4)c3)c(F)c2C2CC2)n1` [Compound 29, 1-(tert-butyl)-N-(4-(2-(cyclopropanecarboxamido)pyridin-4-yl)-2-cyclopropyl-3-fluorobenzyl)-4-fluoro-1H-pyrazole-3-carboxamide], for which the IC50 in test [1] was 500 to 10000 nM; in test [2], 1 to 10 nM.
As for `CC(C)(C)c1ncc(C(=O)NCc2ccc(-c3ccnc(NC(=O)C4CC4)c3)c(F)c2C2CC2)o1` [Compound 30, 2-(tert-butyl)-N-(4-(2-(cyclopropanecarboxamido)pyridin-4-yl)-2-cyclopropyl-3-fluorobenzyl)oxazole-5-carboxamide], the concentration for half-maximal inhibition (IC50) is over 10000 nM in test [1] and 1 to 10 nM in test [2].
For `Cc1c(CNC(=O)c2nn(C(C)(C)C)cc2F)ccc(-c2ccnc(NC(=O)C3CC3)c2)c1F` [Compound 31, 1-(tert-butyl)-N-(4-(2-(cyclopropanecarboxamido)pyridin-4-yl)-3-fluoro-2-methylbenzyl)-4-fluoro-1H-pyrazole-3-carboxamide], the half-inhibitory concentration (IC50) in test [1] is 500 to 10000 nM; in test [2], at most 1 nM.
In the same order, the values of `Cc1c(CNC(=O)c2cnc(C(C)(C)C)o2)ccc(-c2ccnc(NC(=O)C3CC3)c2)c1F` [Compound 32, 2-(tert-butyl)-N-(4-(2-(cyclopropanecarboxamido)pyridin-4-yl)-3-fluoro-2-methylbenzyl)oxazole-5-carboxamide] are 500 to 10000 nM and at most 1 nM.
For the compound `CC(C)(C)c1nc(C(=O)NCc2ccc(-c3ccnc(NC(=O)C4CC4)c3)c(F)c2C2CC2)no1` [Compound 33, 5-(tert-butyl)-N-(4-(2-(cyclopropanecarboxamido)pyridin-4-yl)-2-cyclopropyl-3-fluorobenzyl)-1,2,4-oxadiazole-3-carboxamide], the IC50 was 500 to 10000 nM in test [1] and at most 1 nM in test [2].
Regarding `CC(C)(C)c1noc(C(=O)NCc2ccc(-c3ccnc(NC(=O)C4CC4)c3)c(F)c2C2CC2)n1` [Compound 34, 3-(tert-butyl)-N-(4-(2-(cyclopropanecarboxamido)pyridin-4-yl)-2-cyclopropyl-3-fluorobenzyl)-1,2,4-oxadiazole-5-carboxamide], the IC50 in test [1] was 500 to 10000 nM; in test [2], at most 1 nM.
With `Cc1cc(-c2ccnc(NC(=O)C3CC3)c2)ccc1CNC(=O)c1noc(C(C)(C)CO)n1` [Compound 35, N-(4-(2-(cyclopropanecarboxamido)pyridin-4-yl)-2-methylbenzyl)-5-(1-hydroxy-2-methylpropan-2-yl)-1,2,4-oxadiazole-3-carboxamide], the IC50 was 500 to 10000 nM in test [1] and 1 to 10 nM in test [2].
On to `Cc1cc(-c2ccnc(NC(=O)C3CC34CCC4)c2)ccc1CNC(=O)c1noc(C(C)(C)C)n1` (stereo not shown) [Compound 36], for which the half-maximal inhibitory concentration (IC50) in test [1] was over 10000 nM; in test [2], 1 to 10 nM.
As to `Cc1cc(-c2ccnc(NC(=O)[C@H]3C[C@@H]3F)c2)ccc1CNC(=O)c1noc(C(C)(C)C)n1` [Compound 37, 5-(tert-butyl)-N-(4-(2-((1R,2S)-2-fluorocyclopropane-1-carboxamido)pyridin-4-yl)-2-methylbenzyl)-1,2,4-oxadiazole-3-carboxamide], the IC50 was 500 to 10000 nM in test [1] and at most 1 nM in test [2].
